Results: patent US10301261B2, “Substituted indoles as modulators of ROR-gamma” (Vitae Pharmaceuticals, LLC, priority 2015, dated 2019)

How the values were obtained:
[1] = biological target: recombinant RORγ Ligand Binding Domain (LBD) protein (Homo sapiens (Human), UniProt P51449); test: Radio-Ligand RORγ Binding Assay (Assay 1); conditions: radio-ligand 25-hydroxy [26,27-3H]-cholesterol competition
How it was run: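 Cell-free competition with 25-hydroxy[26,27-³H]-cholesterol for the ligand site of 6×His-GST-tagged RORγ LBD; SPA read-out with poly-Lys YSi beads after shaking and incubation at rt. IC50 taken as the inflection point of a four-parameter fit of percent inhibition vs concentration.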

[2] = biological target: full-length RORγt in Jurkat cells (Homo sapiens (Human), UniProt P51449); test: RORγt 5×RORE Assay in Jurkat Cells (Assay 2); type: cell-based; conditions: RORγt 5×RORE Nanoluc reporter
Sequence of full-length RORγt in Jurkat cells (P51449 other isoform, or with tags, fused parts or gaps): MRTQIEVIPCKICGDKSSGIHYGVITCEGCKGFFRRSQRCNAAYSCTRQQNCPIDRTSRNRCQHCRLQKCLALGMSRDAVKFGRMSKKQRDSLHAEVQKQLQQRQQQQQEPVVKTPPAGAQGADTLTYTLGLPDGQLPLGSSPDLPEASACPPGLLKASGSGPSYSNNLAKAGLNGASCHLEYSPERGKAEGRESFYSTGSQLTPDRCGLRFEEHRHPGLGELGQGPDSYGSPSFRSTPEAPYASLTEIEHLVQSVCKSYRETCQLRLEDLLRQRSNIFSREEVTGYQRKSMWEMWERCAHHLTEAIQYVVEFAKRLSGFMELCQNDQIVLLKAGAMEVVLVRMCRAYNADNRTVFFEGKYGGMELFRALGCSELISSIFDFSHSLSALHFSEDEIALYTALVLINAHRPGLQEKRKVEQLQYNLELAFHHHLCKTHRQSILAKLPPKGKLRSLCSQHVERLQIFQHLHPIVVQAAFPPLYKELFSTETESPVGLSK

Sequence of recombinant RORγ Ligand Binding Domain (LBD) protein (P51449 269-508): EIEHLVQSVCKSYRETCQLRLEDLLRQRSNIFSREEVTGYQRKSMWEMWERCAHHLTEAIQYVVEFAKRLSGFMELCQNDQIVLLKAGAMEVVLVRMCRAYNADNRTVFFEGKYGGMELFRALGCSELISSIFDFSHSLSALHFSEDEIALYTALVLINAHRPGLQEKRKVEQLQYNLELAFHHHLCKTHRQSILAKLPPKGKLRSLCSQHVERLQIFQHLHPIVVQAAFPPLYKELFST

Row | Structure (SMILES) | Ki [1] [nM] | IC50 [2] [nM]
1 | CCn1c(Oc2ccc(C(F)(F)F)cc2)nc2cc(C(=O)N[C@@H](CN)c3ccc(S(=O)(=O)CC)cc3)ccc21 [BE-11, (R)-N-(2-amino-1-(4-(ethylsulfonyl)phenyl)ethyl)-1-ethyl-2-(4-(trifluoromethyl)phenoxy)-1H-benzo[d]imidazole-5-carboxamide] | < 100 | < 100
2 | CCS(=O)(=O)c1ccc([C@H](CO)NC(=O)c2ccc3c(c2)nc(O[C@H]2CC[C@H](C(F)(F)F)CC2)n3C2CC2)cc1 [BE-1, 1-cyclopropyl-N-((R)-1-(4-(ethylsulfonyl)phenyl)-2-hydroxyethyl)-2-(((1r,4R)-4-(trifluoromethyl)cyclohexyl)oxy)-1H-benzo[d]imidazole-5-carboxamide] | < 100 | < 100
3 | CCS(=O)(=O)c1ccc([C@H](CCO)NC(=O)c2ccc3c(c2)nc(C[C@H]2CC[C@H](C(F)(F)F)CC2)n3C2CC2)cc1 [BE-25, 1-cyclopropyl-N-((S)-1-(4-(ethylsulfonyl)phenyl)-3-hydroxypropyl)-2-(((1r,4S)-4-(trifluoromethyl)cyclohexyl)methyl)-1H-benzo[d]imidazole-5-carboxamide] | < 100 | < 100
4 | CCS(=O)(=O)c1ccc([C@H](CO)NC(=O)c2ccc3c(c2)nc(Oc2ccc(C(F)(F)F)cc2)n3C2CC2)nc1 [BE-70, (R)-1-cyclopropyl-N-(1-(5-(ethylsulfonyl)pyridin-2-yl)-2-hydroxyethyl)-2-(4-(trifluoromethyl)phenoxy)-1H-benzo[d]imidazole-5-carboxamide] | < 100 | < 100
5 | CCS(=O)(=O)c1ccc([C@H](CO)NC(=O)c2ccc3c(c2)nc(COC2CCC(C(F)(F)F)CC2)n3C2CC2)cc1 (single isomer, unassigned) [BE-71.1] | < 100 | < 100
6 | CCn1c(Cc2ccc(C(F)(F)F)cc2)nc2cc(C(=O)NCc3ccc(S(=O)(=O)CC)cc3)ccc21 [BE-35, 1-ethyl-N-(4-(ethylsulfonyl)benzyl)-2-(4-(trifluoromethyl)benzyl)-1H-benzo[d]imidazole-5-carboxamide] | < 100 | < 100

Continued, values first:

Row | Ki [1] [nM] | IC50 [2] [nM] | Structure (SMILES)
7 | < 100 | 100 to 1000 | CCn1c(Cc2ccc(C#N)cc2)cc2cc(C(=O)N[C@@H](CO)c3ccc(S(=O)(=O)CC)cn3)ccc21 [IN-21, (R)-2-(4-cyanobenzyl)-1-ethyl-N-(1-(5-(ethylsulfonyl)pyridin-2-yl)-2-hydroxyethyl)-1H-indole-5-carboxamide]
8 | < 100 | < 100 | CCn1c(Cc2ccc3c(c2)OC(F)(F)O3)cc2cc(C(=O)N[C@@H](CO)c3ccc(S(=O)(=O)CC)cn3)ccc21 [IN-5, (R)-2-((2,2-difluorobenzo[d][1,3]dioxol-5-yl)methyl)-1-ethyl-N-(1-(5-(ethylsulfonyl)pyridin-2-yl)-2-hydroxyethyl)-1H-indole-5-carboxamide]
9 | < 100 | < 100 | CCn1c(CN2CCC(C(F)(F)F)CC2)cc2cc(C(=O)N[C@@H](CO)c3ccc(S(=O)(=O)CC)cn3)ccc21 [IN-11, (R)-1-ethyl-N-(1-(5-(ethylsulfonyl)pyridin-2-yl)-2-hydroxyethyl)-2-((4-(trifluoromethyl)piperidin-1-yl)methyl)-1H-indole-5-carboxamide]
10 | < 100 | < 100 | CCn1c(CN2CCC(C(F)(F)F)CC2)cc2cc(C(=O)N[C@@H](CO)c3ccc(S(=O)(=O)CC)cc3)ccc21 [IN-10, (R)-1-ethyl-N-(1-(4-(ethylsulfonyl)phenyl)-2-hydroxyethyl)-2-((4-(trifluoromethyl)piperidin-1-yl)methyl)-1H-indole-5-carboxamide]
